Earlier results, collected in patent publication US20090029020A1, “CYCLODEXTRIN INCLUSION COMPLEXES AND METHODS OF PREPARING SAME” (CARGILL, INCORPORATED, priority 2005, published 2009).
Where two headings read alike, the source gives them in different places. Residues, ends and D or L forms follow the SMILES beside them.

Details: octanol/water partition coefficient

SMILES	log P (Table 1A)	log P (Table 9)
CC=O [acetaldehyde]	−0.17	−0.17
COC(=O)[C@H](Cc1ccccc1)NC(=O)[C@@H](N)CC(=O)O [aspartame] (H-Asp-Phe-OMe)	0.07	0.07
ClC1CCCCC1 [chlorocyclohexane (CCH), chlorocyclohexane]	3.36	3.36
CN(CC(=O)O)C(=N)N [creatine]	−3.72	−3.72
CC(=O)C(C)=O [diacetyl]	−1.34	−1.34
CSC [dimethyl sulfide]	0.92	0.92
CCOC(=O)C(C)C [ethyl isobutyrate]	1.77	1.77
CCOC(=O)CC(C)C [ethyl isovalerate]	2.26	2.26
CCOC(=O)C(C)O (stereo not drawn) [ethyl lactate]	−0.18	−0.18
CCOC(=O)CCC(C)=O [ethyl levulinate]	0.29	0.29
CCc1occc(=O)c1O [ethyl maltol]	0.30	0.30
CCOc1cc(C=O)ccc1O [ethyl vanillin]	1.50	1.50
CC1=C(O)C(=O)C(C)O1 (stereo not drawn) [furaneol]	0.82	0.82
C=C(C)[C@H]1CC=C(C)CC1 [limonene]	4.83	4.83
C=CC(C)(O)CCC=C(C)C (stereo not drawn) [linalool]	–	3.38
Cc1occc(=O)c1O [maltol]	−0.19	−0.19
CO [methanol]	−0.74	−0.74
Cc1ccc(C(C)C)cc1 [p-cymene]	4.10	4.10
O=C(O)[C@@H]1CCCN1 [proline]	−2.15	−2.15
CC(=O)CCc1ccc(O)cc1 [raspberry ketone]	1.48	1.48
